The values that follow come from ChEMBL document CHEMBL4665642, “Anticancer profile of newly synthesized BRAF inhibitors possess 5-(pyrimidin-4-yl)imidazo[2,1-b]thiazole scaffold” (Bioorg Med Chem, 2019).

In one assay the test system is NCI-H460. As to the kind of experiment: Cytotoxicity against human NCI-H460 cells assessed as cell viability at 10 uM incubated for 48 hrs by sulforhodamine B assay relative to control. Format: functional. Conditions: read-out: Activity. A general note: Sulforhodamine B stains cellular protein and so reports cell mass.
In the next assay the test system is K562. The assay can be described thus: Cytotoxicity against human K562 cells assessed as cell viability at 10 uM incubated for 48 hrs by sulforhodamine B assay relative to control. Format: functional. Conditions: read-out: Activity.
In the next assay the test system is L132. The assay can be described thus: Cytotoxicity against human L132 cells assessed as reduction in cell viability by MTT assay. The assay is classed as cell-based.
A further assay concerns MDA-MB-468. The assay can be described thus: Cytotoxicity against human MDA-MB-468 cells assessed as cell viability at 10 uM incubated for 48 hrs by sulforhodamine B assay relative to control. Format: functional. Conditions: read-out: Activity.
For a further assay, the system named is EKVX. The assay can be described thus: Cytotoxicity against human EKVX cells assessed as cell viability at 10 uM incubated for 48 hrs by sulforhodamine B assay relative to control. Format: functional. As to conditions: read-out: Activity.
The test system of a further assay is OVCAR-4. As to the kind of experiment: Cytotoxicity against human OVCAR-4 cells assessed as cell viability at 10 uM incubated for 48 hrs by sulforhodamine B assay relative to control. Format: functional. Conditions: read-out: Activity.
The target of assay [1] is RAF proto-oncogene serine/threonine-protein kinase (Homo sapiens, UniProt P04049). As to the kind of experiment: Inhibition of human CRAF using MEK1 as substrate by [gamma-33P]-ATP assay.
Another assay concerns SW-620. The assay can be described thus: Cytotoxicity against human SW-620 cells assessed as cell viability at 10 uM incubated for 48 hrs by sulforhodamine B assay relative to control. Format: functional. As to conditions: read-out: Activity.
For a further assay, the system named is SF-268. The assay can be described thus: Cytotoxicity against human SF-268 cells assessed as cell viability at 10 uM incubated for 48 hrs by sulforhodamine B assay relative to control. Conditions: read-out: Activity. Format: functional.
In another assay the test system is NCI/ADR-RES. As to the kind of experiment: Cytotoxicity against human NCI/ADR-RES cells assessed as cell viability at 10 uM incubated for 48 hrs by sulforhodamine B assay relative to control. Format: functional. As to conditions: read-out: Activity.
Another assay deals with SK-MEL-28. As to the kind of experiment: Cytotoxicity against human SK-MEL-28 cells assessed as reduction in cell viability by MTT assay. The assay is classed as functional, cell-based.
The test system of another assay is CCRF-CEM. As to the kind of experiment: Cytotoxicity against human CCRF-CEM cells assessed as cell viability at 10 uM incubated for 48 hrs by sulforhodamine B assay relative to control. Format: functional. As to conditions: read-out: Activity.
For another assay, the system named is MDA-MB-435. The assay can be described thus: Cytotoxicity against human MDA-MB-435 cells assessed as cell viability at 10 uM incubated for 48 hrs by sulforhodamine B assay relative to control. Format: functional. Conditions: read-out: Activity.
The target in assay [2] is Serine/threonine-protein kinase B-raf (Homo sapiens, UniProt P15056, V600E). The assay can be described thus: Inhibition of human BRAF V600E mutant using MEK1 as substrate by […] assay.
In another assay the test system is KM12. As to the kind of experiment: Cytotoxicity against human KM12 cells assessed as cell viability at 10 uM incubated for 48 hrs by sulforhodamine B assay relative to control. The assay is classed as functional. As to conditions: read-out: Activity.
The next assay has as its system NCI-H522. The assay can be described thus: Cytotoxicity against human NCI-H522 cells assessed as cell viability at 10 uM incubated for 48 hrs by sulforhodamine B assay relative to control. Conditions: read-out: Activity. Format: functional.
The next assay concerns BT-549. As to the kind of experiment: Cytotoxicity against human BT-549 cells assessed as cell viability at 10 uM incubated for 48 hrs by sulforhodamine B assay relative to control. Format: functional. Conditions: read-out: Activity.
In a further assay the test system is A-375. As to the kind of experiment: Cytotoxicity against human A-375 cells assessed as reduction in cell viability by MTT assay. Format: functional, cell-based. A general note: Tetrazolium dyes change colour on reduction, which living cells bring about.
For a further assay, the system named is SK-OV-3. As to the kind of experiment: Cytotoxicity against human SK-OV-3 cells assessed as cell viability at 10 uM incubated for 48 hrs by sulforhodamine B assay relative to control. Format: functional. Conditions: read-out: Activity.
The next assay relates to HL-60(TB). The assay can be described thus: Cytotoxicity against human HL-60(TB) cells assessed as cell viability at 10 uM incubated for 48 hrs by sulforhodamine B assay relative to control. Conditions: read-out: Activity. The assay is classed as functional.
The test system of a further assay is T47D. As to the kind of experiment: Cytotoxicity against human T47D cells assessed as cell viability at 10 uM incubated for 48 hrs by sulforhodamine B assay relative to control. The assay is classed as functional. As to conditions: read-out: Activity.
Assay [3] has as its target Serine/threonine-protein kinase B-raf (Homo sapiens, UniProt P15056). As to the kind of experiment: Inhibition of human BRAF using MEK1 as substrate by […] assay.
A further assay relates to Malme-3M. As to the kind of experiment: Cytotoxicity against human Malme-3M cells assessed as cell viability at 10 uM incubated for 48 hrs by sulforhodamine B assay relative to control. Format: functional. As to conditions: read-out: Activity.
The test system of another assay is UACC-62. As to the kind of experiment: Cytotoxicity against human UACC-62 cells assessed as cell viability at 10 uM incubated for 48 hrs by sulforhodamine B assay relative to control. The assay is classed as functional. As to conditions: read-out: Activity.

The IC50 is the concentration at which inhibition is half-maximal.

RAF proto-oncogene serine/threonine-protein kinase, sequence (P04049 whole entry): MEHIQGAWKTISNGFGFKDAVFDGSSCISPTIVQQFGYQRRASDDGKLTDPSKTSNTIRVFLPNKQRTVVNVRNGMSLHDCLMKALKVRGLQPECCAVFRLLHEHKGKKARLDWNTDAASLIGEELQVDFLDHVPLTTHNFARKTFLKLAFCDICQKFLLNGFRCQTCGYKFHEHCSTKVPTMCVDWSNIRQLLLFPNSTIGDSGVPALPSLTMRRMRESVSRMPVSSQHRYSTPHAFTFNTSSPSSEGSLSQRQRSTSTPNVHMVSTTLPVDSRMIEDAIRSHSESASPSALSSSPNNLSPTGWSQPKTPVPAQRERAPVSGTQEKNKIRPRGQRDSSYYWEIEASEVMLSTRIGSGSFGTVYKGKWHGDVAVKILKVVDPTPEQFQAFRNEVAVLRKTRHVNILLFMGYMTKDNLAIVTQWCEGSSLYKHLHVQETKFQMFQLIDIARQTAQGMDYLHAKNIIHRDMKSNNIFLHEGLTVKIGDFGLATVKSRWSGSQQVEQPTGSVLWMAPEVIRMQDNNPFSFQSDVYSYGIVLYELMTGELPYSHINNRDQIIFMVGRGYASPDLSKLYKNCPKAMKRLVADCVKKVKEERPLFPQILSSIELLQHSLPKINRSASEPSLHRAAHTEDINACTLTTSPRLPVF
Serine/threonine-protein kinase B-raf (Homo sapiens, UniProt P15056, V600E), sequence (P15056 2-766 V600E limits assumed): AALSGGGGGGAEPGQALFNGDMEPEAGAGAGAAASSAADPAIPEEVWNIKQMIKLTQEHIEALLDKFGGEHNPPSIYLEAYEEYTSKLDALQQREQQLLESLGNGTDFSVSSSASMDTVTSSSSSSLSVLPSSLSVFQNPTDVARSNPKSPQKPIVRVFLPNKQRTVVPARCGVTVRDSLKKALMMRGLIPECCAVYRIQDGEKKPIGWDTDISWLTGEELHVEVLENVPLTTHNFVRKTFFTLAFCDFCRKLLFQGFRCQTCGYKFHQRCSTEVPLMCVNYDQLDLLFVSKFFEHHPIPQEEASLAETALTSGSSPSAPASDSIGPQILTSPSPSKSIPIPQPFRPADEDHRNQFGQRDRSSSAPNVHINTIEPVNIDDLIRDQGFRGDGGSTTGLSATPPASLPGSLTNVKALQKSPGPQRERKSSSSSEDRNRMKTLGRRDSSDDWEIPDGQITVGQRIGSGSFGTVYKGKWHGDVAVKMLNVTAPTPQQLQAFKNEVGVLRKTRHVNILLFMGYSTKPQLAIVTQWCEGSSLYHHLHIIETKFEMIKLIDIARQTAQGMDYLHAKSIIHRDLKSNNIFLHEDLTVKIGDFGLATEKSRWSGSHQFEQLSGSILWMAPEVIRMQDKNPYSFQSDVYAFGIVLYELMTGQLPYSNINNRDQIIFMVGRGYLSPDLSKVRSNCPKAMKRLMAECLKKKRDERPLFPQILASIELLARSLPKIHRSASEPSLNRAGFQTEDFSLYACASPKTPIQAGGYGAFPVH
Serine/threonine-protein kinase B-raf (Homo sapiens, UniProt P15056), sequence (P15056 whole entry): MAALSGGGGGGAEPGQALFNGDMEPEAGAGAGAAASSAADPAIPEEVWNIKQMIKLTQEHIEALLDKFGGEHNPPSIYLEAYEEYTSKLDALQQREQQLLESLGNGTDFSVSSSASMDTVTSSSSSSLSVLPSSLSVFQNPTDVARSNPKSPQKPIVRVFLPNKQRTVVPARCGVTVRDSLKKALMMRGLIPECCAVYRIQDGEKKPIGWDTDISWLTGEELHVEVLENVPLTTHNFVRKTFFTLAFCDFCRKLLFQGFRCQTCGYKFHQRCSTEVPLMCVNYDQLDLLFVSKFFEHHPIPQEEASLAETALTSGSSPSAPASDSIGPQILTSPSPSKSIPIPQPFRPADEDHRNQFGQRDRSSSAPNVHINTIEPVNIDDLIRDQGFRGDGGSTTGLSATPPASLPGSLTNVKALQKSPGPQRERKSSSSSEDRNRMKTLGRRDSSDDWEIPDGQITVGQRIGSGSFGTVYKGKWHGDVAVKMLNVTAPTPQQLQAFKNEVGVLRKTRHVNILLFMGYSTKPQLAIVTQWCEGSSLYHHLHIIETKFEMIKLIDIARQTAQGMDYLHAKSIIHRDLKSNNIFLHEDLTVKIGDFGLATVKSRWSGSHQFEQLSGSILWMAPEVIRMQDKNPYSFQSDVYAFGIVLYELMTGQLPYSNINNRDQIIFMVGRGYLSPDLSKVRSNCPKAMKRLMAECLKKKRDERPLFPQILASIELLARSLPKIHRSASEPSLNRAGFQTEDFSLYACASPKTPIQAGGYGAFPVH

Turning to `O=C(NCCNc1nccc(-c2c(-c3cccc(F)c3)nc3sccn23)n1)c1ccccc1`, the viability at 10 µM in the assay on NCI-H460 was 28.8%; in the assay with K562 it was 44%; in the assay with MDA-MB-468, 57.4%; with EKVX, 54.4%; in the assay with OVCAR-4 it was 55.4%; in the assay on SW-620, 52.3%. Moreover, the viability at 10 µM in the assay with SF-268 amounted to 58.8%; in the assay on NCI/ADR-RES, 64.9%; in the assay with CCRF-CEM, 40.9%; in the assay with MDA-MB-435 it was 27%; in the assay on KM12 it was 56.6%; in the assay on NCI-H522, 57.9%. For the same molecule, the viability at 10 µM was found to be 71.2% with BT-549; 75.1% with SK-OV-3; 83.7% in the assay with HL-60(TB); 34.5% in the assay on T47D; 23.7% with Malme-3M; 11.2% in the assay on UACC-62. For the same molecule, the IC50 with L132 came to 200 µM; in assay [1], 0.312 µM; with SK-MEL-28, 17 µM; in assay [2], 0.037 µM; in the assay on A-375, 5.06 µM; in assay [3] it was 0.162 µM.
Regarding `O=S(=O)(NCCCNc1nccc(-c2c(-c3cccc(F)c3)nc3sccn23)n1)c1ccccc1`, the viability at 10 µM with NCI-H460 was 65.3%; in the assay with K562 it was 34.3%; with MDA-MB-468 it was 62.7%; in the assay on EKVX, 65.4%; in the assay with OVCAR-4 it was 54.8%; in the assay on SW-620, 91.3%. Also, the viability at 10 µM came out at 71.5% with SF-268; 53.4% with NCI/ADR-RES; 44.1% with CCRF-CEM; 41.7% with MDA-MB-435; 62.1% in the assay on KM12; 47% with NCI-H522. For the same molecule, the viability at 10 µM stood at 71.1% in the assay on BT-549; 71.5% in the assay on SK-OV-3; 101% with HL-60(TB); 14.4% in the assay on T47D; 82.1% in the assay on Malme-3M; 26.8% in the assay on UACC-62. Also, the IC50 with L132 is above 400 µM; with SK-MEL-28 it was 6.85 µM; in the assay with A-375, 6.6 µM.
For `O=C(NCCNc1nccc(-c2c(-c3cccc(F)c3)nc3sccn23)n1)c1c(F)cccc1F`, the viability at 10 µM in the assay on NCI-H460 is 24.8%; with K562, 40.2%; in the assay on MDA-MB-468, 54.3%; in the assay on EKVX, 61.2%; in the assay on OVCAR-4, 60.9%; in the assay on SW-620, 47.3%. In addition, the viability at 10 µM in the assay on SF-268 turned out to be 54.4%; in the assay on NCI/ADR-RES, 56.9%; in the assay on CCRF-CEM, 42.8%; in the assay on MDA-MB-435, 17.4%; in the assay on KM12, 47.7%; in the assay on NCI-H522 it was 42.8%. Besides, the viability at 10 µM in the assay on BT-549 stood at 56%; with SK-OV-3 it was 64.1%; in the assay with HL-60(TB), 86.4%; with T47D it was 26.7%; with Malme-3M it was 31.6%; with UACC-62, 10.3%. Besides, the IC50 worked out at 198 µM with L132; 0.102 µM in [1]; 11.4 µM in the assay with SK-MEL-28; 0.0331 µM in assay [2]; 2.7 µM in the assay on A-375; 0.0953 µM in assay [3].
